# Test results from patent publication US20260027116A1, “Methods of Treating Chronic Graft-Versus-Host Disease Following Allogeneic Hematopoietic Stem Cell Transplantation” (Kadmon Corporation, LLC, priority 2022, published 2026).
# System: lung function
# Assay: Example 1: percent predicted HGB corrected DLco change from baseline
# Format: in vivo, human
# Details: mean (SD)
# Description: Change From Baseline in Percent Predicted Hemoglobin (HGB) Corrected Diffusing Capacity of Lung for Carbon Monoxide (DLco) at Each Specified Time Points. DLco is a measurement of the ability of the lungs to transfer gases from the air to the blood. Change from baseline in diffusing capacity of the lung for carbon monoxide (percent predicted hemoglobin level corrected) was reported for this measure. Baseline value was defined as valid and last non-missing value obtained within 28 days prior to participant receiving first study medication. EOT visit was performed within 3 days after the participant's last dose of study drug. […] Analysis was performed on mITT population. Here, ‘number analyzed’=participants with available data for each specified category. Here, ‘O’ in the number analyzed field signifies that none of the participants were available for the analysis at the specified time points.
compound,measurement,setting,value
"CC(C)NC(=O)COc1cccc(-c2nc(Nc3ccc4[nH]ncc4c3)c3ccccc3n2)c1 [Belumosudil, 2-{3-[4-(1H-indazol-5-ylamino)-2-quinazolinyl]phenoxy}-N-(propan-2-yl) acetamide]",Change From Baseline in Percent Predicted Hemoglobin (HGB) Corrected Diffusing Capacity of Lung for Carbon Monoxide (DLco),"Cohort 1: 200 mg QD, Cycle 3, Day 1",4.545 (22.991) Percent Predicted HGB Corrected DLco
same,Change From Baseline in Percent Predicted Hemoglobin (HGB) Corrected Diffusing Capacity of Lung for Carbon Monoxide (DLco),"Cohort 1: 200 mg QD, Cycle 5, Day 1",4.635 (23.989) Percent Predicted HGB Corrected DLco
same,Change From Baseline in Percent Predicted Hemoglobin (HGB) Corrected Diffusing Capacity of Lung for Carbon Monoxide (DLco),"Cohort 1: 200 mg QD, Cycle 7, Day 1",1.521 (19.836) Percent Predicted HGB Corrected DLco
same,Change From Baseline in Percent Predicted Hemoglobin (HGB) Corrected Diffusing Capacity of Lung for Carbon Monoxide (DLco),"Cohort 1: 200 mg QD, Cycle 9, Day 1",−4.514 (7.401) Percent Predicted HGB Corrected DLco
same,Change From Baseline in Percent Predicted Hemoglobin (HGB) Corrected Diffusing Capacity of Lung for Carbon Monoxide (DLco),"Cohort 1: 200 mg QD, Cycle 11, Day 1",−0.625 (7.262) Percent Predicted HGB Corrected DLco
same,Change From Baseline in Percent Predicted Hemoglobin (HGB) Corrected Diffusing Capacity of Lung for Carbon Monoxide (DLco),"Cohort 1: 200 mg QD, Cycle 12, Day 1",0.531 (—) Percent Predicted HGB Corrected DLco
same,Change From Baseline in Percent Predicted Hemoglobin (HGB) Corrected Diffusing Capacity of Lung for Carbon Monoxide (DLco),"Cohort 1: 200 mg QD, Cycle 13, Day 1",−5.548 (12.175) Percent Predicted HGB Corrected DLco
same,Change From Baseline in Percent Predicted Hemoglobin (HGB) Corrected Diffusing Capacity of Lung for Carbon Monoxide (DLco),"Cohort 1: 200 mg QD, Cycle 14, Day 1",12.916 (—) Percent Predicted HGB Corrected DLco
same,Change From Baseline in Percent Predicted Hemoglobin (HGB) Corrected Diffusing Capacity of Lung for Carbon Monoxide (DLco),"Cohort 1: 200 mg QD, Cycle 15, Day 1",0.228 (15.731) Percent Predicted HGB Corrected DLco
same,Change From Baseline in Percent Predicted Hemoglobin (HGB) Corrected Diffusing Capacity of Lung for Carbon Monoxide (DLco),"Cohort 1: 200 mg QD, Cycle 16, Day 1",48.465 (—) Percent Predicted HGB Corrected DLco
same,Change From Baseline in Percent Predicted Hemoglobin (HGB) Corrected Diffusing Capacity of Lung for Carbon Monoxide (DLco),"Cohort 1: 200 mg QD, Cycle 17, Day 1",−1.018 (9.226) Percent Predicted HGB Corrected DLco
same,Change From Baseline in Percent Predicted Hemoglobin (HGB) Corrected Diffusing Capacity of Lung for Carbon Monoxide (DLco),"Cohort 1: 200 mg QD, Cycle 19, Day 1",−2.293 (5.763) Percent Predicted HGB Corrected DLco
same,Change From Baseline in Percent Predicted Hemoglobin (HGB) Corrected Diffusing Capacity of Lung for Carbon Monoxide (DLco),"Cohort 1: 200 mg QD, Cycle 21, Day 1",−2.778 (8.187) Percent Predicted HGB Corrected DLco
same,Change From Baseline in Percent Predicted Hemoglobin (HGB) Corrected Diffusing Capacity of Lung for Carbon Monoxide (DLco),"Cohort 1: 200 mg QD, Cycle 23, Day 1",0.354 (1.844) Percent Predicted HGB Corrected DLco
same,Change From Baseline in Percent Predicted Hemoglobin (HGB) Corrected Diffusing Capacity of Lung for Carbon Monoxide (DLco),"Cohort 1: 200 mg QD, Cycle 24, Day 1",6.945 (—) Percent Predicted HGB Corrected DLco
same,Change From Baseline in Percent Predicted Hemoglobin (HGB) Corrected Diffusing Capacity of Lung for Carbon Monoxide (DLco),"Cohort 1: 200 mg QD, Cycle 25, Day 1",−4.461 (19.865) Percent Predicted HGB Corrected DLco
same,Change From Baseline in Percent Predicted Hemoglobin (HGB) Corrected Diffusing Capacity of Lung for Carbon Monoxide (DLco),"Cohort 1: 200 mg QD, Cycle 26, Day 1",4.715 (—) Percent Predicted HGB Corrected DLco
same,Change From Baseline in Percent Predicted Hemoglobin (HGB) Corrected Diffusing Capacity of Lung for Carbon Monoxide (DLco),"Cohort 1: 200 mg QD, Cycle 27, Day 1",−8.047 (24.788) Percent Predicted HGB Corrected DLco
same,Change From Baseline in Percent Predicted Hemoglobin (HGB) Corrected Diffusing Capacity of Lung for Carbon Monoxide (DLco),"Cohort 1: 200 mg QD, Cycle 29, Day 1",−6.701 (1.671) Percent Predicted HGB Corrected DLco
same,Change From Baseline in Percent Predicted Hemoglobin (HGB) Corrected Diffusing Capacity of Lung for Carbon Monoxide (DLco),"Cohort 1: 200 mg QD, Cycle 31, Day 1",2.343 (20.988) Percent Predicted HGB Corrected DLco
same,Change From Baseline in Percent Predicted Hemoglobin (HGB) Corrected Diffusing Capacity of Lung for Carbon Monoxide (DLco),"Cohort 1: 200 mg QD, Cycle 32, Day 1",5.586 (—) Percent Predicted HGB Corrected DLco
same,Change From Baseline in Percent Predicted Hemoglobin (HGB) Corrected Diffusing Capacity of Lung for Carbon Monoxide (DLco),"Cohort 1: 200 mg QD, Cycle 33, Day 1",9.901 (9.954) Percent Predicted HGB Corrected DLco
same,Change From Baseline in Percent Predicted Hemoglobin (HGB) Corrected Diffusing Capacity of Lung for Carbon Monoxide (DLco),"Cohort 1: 200 mg QD, Cycle 34, Day 1",4.863 (—) Percent Predicted HGB Corrected DLco
same,Change From Baseline in Percent Predicted Hemoglobin (HGB) Corrected Diffusing Capacity of Lung for Carbon Monoxide (DLco),"Cohort 1: 200 mg QD, Cycle 35, Day 1",13.867 (1.309) Percent Predicted HGB Corrected DLco
same,Change From Baseline in Percent Predicted Hemoglobin (HGB) Corrected Diffusing Capacity of Lung for Carbon Monoxide (DLco),"Cohort 1: 200 mg QD, Cycle 36, Day 1",4.166 (—) Percent Predicted HGB Corrected DLco
same,Change From Baseline in Percent Predicted Hemoglobin (HGB) Corrected Diffusing Capacity of Lung for Carbon Monoxide (DLco),"Cohort 1: 200 mg QD, Cycle 37, Day 1",9.306 (—) Percent Predicted HGB Corrected DLco
same,Change From Baseline in Percent Predicted Hemoglobin (HGB) Corrected Diffusing Capacity of Lung for Carbon Monoxide (DLco),"Cohort 1: 200 mg QD, Cycle 39, Day 1",14.754 (0.649) Percent Predicted HGB Corrected DLco
same,Change From Baseline in Percent Predicted Hemoglobin (HGB) Corrected Diffusing Capacity of Lung for Carbon Monoxide (DLco),"Cohort 1: 200 mg QD, Cycle 40, Day 1",5.586 (—) Percent Predicted HGB Corrected DLco
same,Change From Baseline in Percent Predicted Hemoglobin (HGB) Corrected Diffusing Capacity of Lung for Carbon Monoxide (DLco),"Cohort 1: 200 mg QD, Cycle 41, Day 1",22.884 (—) Percent Predicted HGB Corrected DLco
same,Change From Baseline in Percent Predicted Hemoglobin (HGB) Corrected Diffusing Capacity of Lung for Carbon Monoxide (DLco),"Cohort 1: 200 mg QD, Cycle 43, Day 1",15.213 (—) Percent Predicted HGB Corrected DLco
same,Change From Baseline in Percent Predicted Hemoglobin (HGB) Corrected Diffusing Capacity of Lung for Carbon Monoxide (DLco),"Cohort 1: 200 mg QD, Cycle 49, Day 1",−3.599 (—) Percent Predicted HGB Corrected DLco
same,Change From Baseline in Percent Predicted Hemoglobin (HGB) Corrected Diffusing Capacity of Lung for Carbon Monoxide (DLco),"Cohort 1: 200 mg QD, Cycle 51, Day 1",11.734 (—) Percent Predicted HGB Corrected DLco
same,Change From Baseline in Percent Predicted Hemoglobin (HGB) Corrected Diffusing Capacity of Lung for Carbon Monoxide (DLco),"Cohort 1: 200 mg QD, Cycle 53, Day 1",10.292 (—) Percent Predicted HGB Corrected DLco
same,Change From Baseline in Percent Predicted Hemoglobin (HGB) Corrected Diffusing Capacity of Lung for Carbon Monoxide (DLco),"Cohort 1: 200 mg QD, Cycle 55, Day 1",16.550 (—) Percent Predicted HGB Corrected DLco
same,Change From Baseline in Percent Predicted Hemoglobin (HGB) Corrected Diffusing Capacity of Lung for Carbon Monoxide (DLco),"Cohort 1: 200 mg QD, Cycle 61, Day 1",17.682 (—) Percent Predicted HGB Corrected DLco
same,Change From Baseline in Percent Predicted Hemoglobin (HGB) Corrected Diffusing Capacity of Lung for Carbon Monoxide (DLco),"Cohort 1: 200 mg QD, Cycle 62, Day 1",4.170 (—) Percent Predicted HGB Corrected DLco
same,Change From Baseline in Percent Predicted Hemoglobin (HGB) Corrected Diffusing Capacity of Lung for Carbon Monoxide (DLco),"Cohort 1: 200 mg QD, Cycle 63, Day 1",26.215 (—) Percent Predicted HGB Corrected DLco
same,Change From Baseline in Percent Predicted Hemoglobin (HGB) Corrected Diffusing Capacity of Lung for Carbon Monoxide (DLco),"Cohort 1: 200 mg QD, Cycle 67, Day 1",41.384 (—) Percent Predicted HGB Corrected DLco
same,Change From Baseline in Percent Predicted Hemoglobin (HGB) Corrected Diffusing Capacity of Lung for Carbon Monoxide (DLco),"Cohort 1: 200 mg QD, EOT",−1.962 (11.426) Percent Predicted HGB Corrected DLco
same,Change From Baseline in Percent Predicted Hemoglobin (HGB) Corrected Diffusing Capacity of Lung for Carbon Monoxide (DLco),"Cohort 2: 200 mg BID, Cycle 3, Day 1",−0.638 (7.059) Percent Predicted HGB Corrected DLco
same,Change From Baseline in Percent Predicted Hemoglobin (HGB) Corrected Diffusing Capacity of Lung for Carbon Monoxide (DLco),"Cohort 2: 200 mg BID, Cycle 5, Day 1",−4.462 (23.621) Percent Predicted HGB Corrected DLco
same,Change From Baseline in Percent Predicted Hemoglobin (HGB) Corrected Diffusing Capacity of Lung for Carbon Monoxide (DLco),"Cohort 2: 200 mg BID, Cycle 7, Day 1",6.184 (9.436) Percent Predicted HGB Corrected DLco
same,Change From Baseline in Percent Predicted Hemoglobin (HGB) Corrected Diffusing Capacity of Lung for Carbon Monoxide (DLco),"Cohort 2: 200 mg BID, Cycle 8, Day 1",3.554 (—) Percent Predicted HGB Corrected DLco
same,Change From Baseline in Percent Predicted Hemoglobin (HGB) Corrected Diffusing Capacity of Lung for Carbon Monoxide (DLco),"Cohort 2: 200 mg BID, Cycle 9, Day 1",2.570 (8.902) Percent Predicted HGB Corrected DLco
same,Change From Baseline in Percent Predicted Hemoglobin (HGB) Corrected Diffusing Capacity of Lung for Carbon Monoxide (DLco),"Cohort 2: 200 mg BID, Cycle 10, Day 1",4.343 (3.144) Percent Predicted HGB Corrected DLco
same,Change From Baseline in Percent Predicted Hemoglobin (HGB) Corrected Diffusing Capacity of Lung for Carbon Monoxide (DLco),"Cohort 2: 200 mg BID, Cycle 11, Day 1",6.582 (10.695) Percent Predicted HGB Corrected DLco
same,Change From Baseline in Percent Predicted Hemoglobin (HGB) Corrected Diffusing Capacity of Lung for Carbon Monoxide (DLco),"Cohort 2: 200 mg BID, Cycle 12, Day 1",4.076 (—) Percent Predicted HGB Corrected DLco
same,Change From Baseline in Percent Predicted Hemoglobin (HGB) Corrected Diffusing Capacity of Lung for Carbon Monoxide (DLco),"Cohort 2: 200 mg BID, Cycle 13, Day 1",1.882 (7.522) Percent Predicted HGB Corrected DLco
same,Change From Baseline in Percent Predicted Hemoglobin (HGB) Corrected Diffusing Capacity of Lung for Carbon Monoxide (DLco),"Cohort 2: 200 mg BID, Cycle 14, Day 1",0.358 (—) Percent Predicted HGB Corrected DLco
same,Change From Baseline in Percent Predicted Hemoglobin (HGB) Corrected Diffusing Capacity of Lung for Carbon Monoxide (DLco),"Cohort 2: 200 mg BID, Cycle 15, Day 1",1.125 (5.927) Percent Predicted HGB Corrected DLco
